Results published in PubChem BioAssay AID2060899 (Molecular Pharmacology Branch, DTP, NCI, 2025).

Tested on: 565726-208-R1-J5-PDC complex spheroids, growth inhibition
Test: Anticancer human tumor 565726-208-R1-J5-PDC patient-derived pancreatic adenocarcinoma cell line growth inhibition [RAS]
Settings: for IC50: curve of first compound; for viability, T/C: stronger effect = lower value
Method in brief: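 Multi-cell-type spheroids: tumor cells plus HUVEC endothelial cells and mesenchymal stem cells. RAS-pathway inhibitors were combined with targeted agents, each dosed in half-log steps down from clinical Cmax, or from 10 microM when Cmax was unknown.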
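Also: spheroids exposed to compounds for seven days before readout.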
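For viability, T/C in this document: 100% = DMSO vehicle control viability.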

CC(Nc1ccc2c(c1)OCCn1cc(N3C(=O)OCC3C(F)F)nc1-2)C(N)=O (centres undefined) + C=CC(=O)N1CCN(c2nc(OCC3CCCN3C)nc3c(F)c(-c4nc(N)cc(C)c4C(F)(F)F)c(Cl)cc23)C(C)C1
IC50 (second compound 0.00316 µM): > 10000 nM
IC50 (second compound 0.01 µM): > 10000 nM
IC50 (second compound 0.0316 µM): > 10000 nM
IC50 (second compound 0.1 µM): > 10000 nM
IC50 (second compound 0.316 µM): > 10000 nM
IC50 (second compound 1 µM): > 10000 nM
viability, T/C (second compound 0.00316 µM, first compound 0.0316 µM): 87.9%
viability, T/C (second compound 0.00316 µM, first compound 0.1 µM): 124%
viability, T/C (second compound 0.00316 µM, first compound 0.316 µM): 93.7%
viability, T/C (second compound 0.00316 µM, first compound 1 µM): 67.5%
viability, T/C (second compound 0.00316 µM, first compound 3.16 µM): 92.8%
viability, T/C (second compound 0.00316 µM, first compound 10 µM): 86.4%
viability, T/C (second compound 0.01 µM, first compound 0.0316 µM): 95.4%
viability, T/C (second compound 0.01 µM, first compound 0.1 µM): 139%
viability, T/C (second compound 0.01 µM, first compound 0.316 µM): 79.8%
viability, T/C (second compound 0.01 µM, first compound 1 µM): 66%
viability, T/C (second compound 0.01 µM, first compound 3.16 µM): 100%
viability, T/C (second compound 0.01 µM, first compound 10 µM): 89%
viability, T/C (second compound 0.0316 µM, first compound 0.0316 µM): 121%
viability, T/C (second compound 0.0316 µM, first compound 0.1 µM): 128%
viability, T/C (second compound 0.0316 µM, first compound 0.316 µM): 78.6%
viability, T/C (second compound 0.0316 µM, first compound 1 µM): 67.9%
viability, T/C (second compound 0.0316 µM, first compound 3.16 µM): 104%
viability, T/C (second compound 0.0316 µM, first compound 10 µM): 96.2%
viability, T/C (second compound 0.1 µM, first compound 0.0316 µM): 149%
viability, T/C (second compound 0.1 µM, first compound 0.1 µM): 130%
viability, T/C (second compound 0.1 µM, first compound 0.316 µM): 69.4%
viability, T/C (second compound 0.1 µM, first compound 1 µM): 66.8%
viability, T/C (second compound 0.1 µM, first compound 3.16 µM): 62.7%
viability, T/C (second compound 0.1 µM, first compound 10 µM): 85.1%
viability, T/C (second compound 0.316 µM, first compound 0.0316 µM): 141%
viability, T/C (second compound 0.316 µM, first compound 0.1 µM): 139%
viability, T/C (second compound 0.316 µM, first compound 0.316 µM): 86.3%
viability, T/C (second compound 0.316 µM, first compound 1 µM): 79.8%
viability, T/C (second compound 0.316 µM, first compound 3.16 µM): 66.3%
viability, T/C (second compound 0.316 µM, first compound 10 µM): 102%
viability, T/C (second compound 1 µM, first compound 0.0316 µM): 126%
viability, T/C (second compound 1 µM, first compound 0.1 µM): 147%
viability, T/C (second compound 1 µM, first compound 0.316 µM): 90.2%
viability, T/C (second compound 1 µM, first compound 1 µM): 64.9%
viability, T/C (second compound 1 µM, first compound 3.16 µM): 85.3%
viability, T/C (second compound 1 µM, first compound 10 µM): 89.8%

O=C(c1ccc(F)c(F)c1Nc1ccc(I)cc1F)N1CC(O)([C@@H]2CCCCN2)C1 + CCn1c(-c2cccnc2C(C)OC)c2c3cc(ccc31)N1CCOC(CC(NC(=O)C(C(C)C)N(C)C(=O)C3(F)CCN(C(=O)C#CC(C)(C)N(C)C)CC3)C(=O)N3CCCC(N3)C(=O)OCC(C)(C)C2)C1
IC50 (second compound 0.000949 µM): 161 nM
IC50 (second compound 0.003 µM): 130 nM
IC50 (second compound 0.00949 µM): 160 nM
IC50 (second compound 0.03 µM): 182 nM
IC50 (second compound 0.0949 µM): 192 nM
IC50 (second compound 0.3 µM): 95.7 nM
viability, T/C (second compound 0.000949 µM, first compound 0.00316 µM): 95.3%
viability, T/C (second compound 0.000949 µM, first compound 0.01 µM): 83.2%
viability, T/C (second compound 0.000949 µM, first compound 0.0316 µM): 76.8%
viability, T/C (second compound 0.000949 µM, first compound 0.1 µM): 55.4%
viability, T/C (second compound 0.000949 µM, first compound 0.316 µM): 40%
viability, T/C (second compound 0.000949 µM, first compound 1 µM): 17.7%
viability, T/C (second compound 0.003 µM, first compound 0.00316 µM): 96.4%
viability, T/C (second compound 0.003 µM, first compound 0.01 µM): 80.4%
viability, T/C (second compound 0.003 µM, first compound 0.0316 µM): 71.8%
viability, T/C (second compound 0.003 µM, first compound 0.1 µM): 53.2%
viability, T/C (second compound 0.003 µM, first compound 0.316 µM): 36.8%
viability, T/C (second compound 0.003 µM, first compound 1 µM): 19%
viability, T/C (second compound 0.00949 µM, first compound 0.00316 µM): 93.7%
viability, T/C (second compound 0.00949 µM, first compound 0.01 µM): 87.3%
viability, T/C (second compound 0.00949 µM, first compound 0.0316 µM): 67.7%
viability, T/C (second compound 0.00949 µM, first compound 0.1 µM): 57.1%
viability, T/C (second compound 0.00949 µM, first compound 0.316 µM): 43.2%
viability, T/C (second compound 0.00949 µM, first compound 1 µM): 19.9%
viability, T/C (second compound 0.03 µM, first compound 0.00316 µM): 82.7%
viability, T/C (second compound 0.03 µM, first compound 0.01 µM): 82.3%
viability, T/C (second compound 0.03 µM, first compound 0.0316 µM): 77.9%
viability, T/C (second compound 0.03 µM, first compound 0.1 µM): 59.5%
viability, T/C (second compound 0.03 µM, first compound 0.316 µM): 40.6%
viability, T/C (second compound 0.03 µM, first compound 1 µM): 19.4%
viability, T/C (second compound 0.0949 µM, first compound 0.00316 µM): 82.8%
viability, T/C (second compound 0.0949 µM, first compound 0.01 µM): 78.8%
viability, T/C (second compound 0.0949 µM, first compound 0.0316 µM): 72.9%
viability, T/C (second compound 0.0949 µM, first compound 0.1 µM): 57.4%
viability, T/C (second compound 0.0949 µM, first compound 0.316 µM): 43.8%
viability, T/C (second compound 0.0949 µM, first compound 1 µM): 19.8%
viability, T/C (second compound 0.3 µM, first compound 0.00316 µM): 82.6%
viability, T/C (second compound 0.3 µM, first compound 0.01 µM): 71.2%
viability, T/C (second compound 0.3 µM, first compound 0.0316 µM): 67.5%
viability, T/C (second compound 0.3 µM, first compound 0.1 µM): 45.9%
viability, T/C (second compound 0.3 µM, first compound 0.316 µM): 34.4%
viability, T/C (second compound 0.3 µM, first compound 1 µM): 13.6%
